Laboratory results published in paper PMC9685933, “Tiliroside suppresses triple-negative breast cancer as a multifunctional CAXII inhibitor” (Cancer Cell International, 2022).

Target: T1, CAXII (Homo sapiens, UniProt O43570)
T1 construct: gene CA12
Assay: CAXII esterase activity assay (4-nitrophenol absorbance) in MDA-MB-231 cells; […] in BT-549 cells
Format: cell-based

T1 sequence (O43570 25-354): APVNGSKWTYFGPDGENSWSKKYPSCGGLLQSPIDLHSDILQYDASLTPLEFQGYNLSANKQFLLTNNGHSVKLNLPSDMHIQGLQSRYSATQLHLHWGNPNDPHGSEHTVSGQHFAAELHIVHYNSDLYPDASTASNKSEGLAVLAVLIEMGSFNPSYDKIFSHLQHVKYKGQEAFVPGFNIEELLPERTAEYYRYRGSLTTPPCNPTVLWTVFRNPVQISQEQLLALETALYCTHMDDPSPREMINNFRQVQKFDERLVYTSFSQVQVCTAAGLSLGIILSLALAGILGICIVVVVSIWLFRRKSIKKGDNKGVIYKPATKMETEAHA

IC50: 20.9 ± 5.8 µM
Compound: O=C(/C=C/c1ccc(O)cc1)OC[C@H]1O[C@@H](Oc2c(-c3ccc(O)cc3)oc3cc(O)cc(O)c3c2=O)[C@H](O)[C@@H](O)[C@@H]1O [TS, Tiliroside]
